The numbers were not newly measured in patent US7258850B2, “Methods and compositions for treating erectile dysfunction” (Aradigm Corporation, priority 1999, dated 2007), which cites them from elsewhere.

Where a name gives a salt, the structure may show the parent alone. Read-outs that look alike come from different tables or passages of the source. No end group written: not given here.

The subject of one series is Rho-kinase. To be noted: applied topically, rats.
Series [1] has as its system dopamine D1 and D2 receptor. The following applies: rats, apomorphine in combination with sildenafil.
A further series relates to human corpus carvernosum. To be noted: human tissue.
Series [2] relates to rabbit corpus carvernosum. To be noted: rabbit tissue.
The next series concerns smooth muscle. To be noted: intracavernous.
The target of the next series is T1, sGC (Rattus norvegicus, UniProt P19686+P20595).
T1 construct: host or cells: in vivo, rat corpus cavernosum
T1 sequence (P20595 1-619): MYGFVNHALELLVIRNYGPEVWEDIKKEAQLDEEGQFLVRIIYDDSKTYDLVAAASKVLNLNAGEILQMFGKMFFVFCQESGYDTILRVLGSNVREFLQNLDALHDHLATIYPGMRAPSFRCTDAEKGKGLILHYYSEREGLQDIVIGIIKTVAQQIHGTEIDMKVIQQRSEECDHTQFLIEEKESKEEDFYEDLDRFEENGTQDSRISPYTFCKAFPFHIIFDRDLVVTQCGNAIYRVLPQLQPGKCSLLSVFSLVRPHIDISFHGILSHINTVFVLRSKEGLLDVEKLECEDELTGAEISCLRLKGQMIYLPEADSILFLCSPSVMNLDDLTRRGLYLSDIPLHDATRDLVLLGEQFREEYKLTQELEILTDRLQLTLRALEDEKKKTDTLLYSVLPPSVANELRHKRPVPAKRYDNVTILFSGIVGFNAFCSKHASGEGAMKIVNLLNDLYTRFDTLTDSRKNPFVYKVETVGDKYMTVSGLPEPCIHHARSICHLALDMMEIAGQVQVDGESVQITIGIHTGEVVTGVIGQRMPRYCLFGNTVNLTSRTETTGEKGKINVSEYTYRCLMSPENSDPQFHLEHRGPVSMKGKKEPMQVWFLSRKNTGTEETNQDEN
T1 sequence (P19686 1-690): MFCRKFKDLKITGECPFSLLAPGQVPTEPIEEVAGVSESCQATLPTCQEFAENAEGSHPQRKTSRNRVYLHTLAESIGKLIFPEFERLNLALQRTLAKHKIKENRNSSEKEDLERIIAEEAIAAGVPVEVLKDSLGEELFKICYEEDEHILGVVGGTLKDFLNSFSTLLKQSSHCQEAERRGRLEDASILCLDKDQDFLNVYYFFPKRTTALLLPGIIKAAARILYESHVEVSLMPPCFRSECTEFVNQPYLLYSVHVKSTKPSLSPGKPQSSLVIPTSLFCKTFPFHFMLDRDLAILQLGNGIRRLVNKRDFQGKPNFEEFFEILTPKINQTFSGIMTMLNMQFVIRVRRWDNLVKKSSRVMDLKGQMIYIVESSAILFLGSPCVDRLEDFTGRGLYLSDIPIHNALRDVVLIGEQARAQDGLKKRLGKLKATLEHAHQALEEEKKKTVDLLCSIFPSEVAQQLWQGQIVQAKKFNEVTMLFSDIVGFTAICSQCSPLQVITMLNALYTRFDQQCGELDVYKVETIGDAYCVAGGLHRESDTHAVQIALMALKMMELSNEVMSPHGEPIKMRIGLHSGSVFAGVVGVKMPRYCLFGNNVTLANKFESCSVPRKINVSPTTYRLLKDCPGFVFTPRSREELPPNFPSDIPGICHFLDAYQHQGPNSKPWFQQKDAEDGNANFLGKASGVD
To be noted: administered intracavernously, rats.

As to `C[C@@H](N)[C@H]1CC[C@H](C(=O)Nc2ccncc2)CC1` [Y-27632], the erection result in the series with Rho-kinase was “stimulated erection”.

On to `CN1CCc2cccc3c2[C@H]1Cc1ccc(O)c(O)c1-3` [Apomorphine], for which the “duration of erectile response” value in series [1] is on record as “prolonged in combination with sildenafil”; in series [1] (listed as apomorphine), “prolonged by sildenafil”.

Consider `Nc1nc(-c2nn(Cc3ccccc3F)c3ncccc23)ncc1C1CC1` [BAY-41-2272], for which the “relaxation of corpus cavernosum relative to YC-1” value (in the series on human corpus carvernosum; in series [2]) was “more potently than YC-1” each time.

In the case of “Vasoactive intestinal peptid: intracavernous drug, potent smooth muscle relaxant (HSDAVFTDNYTRLRKQMAVKKYLNSILN; ends and bridges not checked; UniProt P01282 125-152, looked up)”, the duration of effect entry in the series with smooth muscle was “up to 2.5 hours”.

On to `CCCc1nn(C)c2c(=O)[nH]c(-c3cc(S(=O)(=O)N4CCN(C)CC4)ccc3OCC)nc12` [sildenifil citrate, Sildenafil citrate], for which the solubility in water entry was “relatively insoluble in water”.

For `OCc1ccc(-c2nn(Cc3ccccc3)c3ccccc23)o1` [YC-1, 3-(5′-hydroxymethyl-2′furyl)-1-benzyl-indazole], the erection result at sGC is given as “elicited dose-dependent erection”.
